Laboratory results reported in patent publication US10414745B2, “Phenol derivatives to treat cancer” (FUNDACIÓN MEDINA. CENTRO DE EXCELENCIA EN INVESTIGACIÓN DE …, priority 2015, dated 2019).
Where two headings read alike, the source gives them in different places.

Assays:
[1] = tested on: Cancer Stem Cells MiaPaca_2; test: MTT assay, synergism with Gemcitabine, Cancer Stem Cells MiaPaca_2; format: cell-based; conditions: Homo sapiens, MIA PaCa-2; Cancer Stem Cells MiaPaca_2, Gemcitabine alone; read-out: IC50, dose-response curve of Gemcitabine
Protocol: In order to study if treatment with MDN-0090 could be used in synergism with the most common pancreatic chemotherapic drug (Gemcitabine), MTT assay was performed using tumor cell lines (MiaPaca_2 and BxPC3) and cancer stem cells (MiaPaca_2 and BxPC3). In this way different Gemcitabine concentrations (0.00025-5 μM) were used with MDN-0090 dose response curves (0.39-50 μM) and vice versa. With this assay, we observed that the activity of both compounds (Gemcitabine and MDN-0090) increased when were administered together. (Tables 14-19)

MiaPaca_2 = test: MTT assay in MiaPaca_2 tumoral pancreatic cell line; format: cell-based; conditions: Homo sapiens, MIA PaCa-2; 72 hours of treatment; read-out: ED50 MiaPaca_2 (MTT assay)
Protocol: (§1) The activity of the compounds was detected using tumoral pancreatic cell lines (MiaPaca-2 and BxPC3). For this purpose MTT test was used. Cells were seeded at […], and treated with the compound during 72 hours.

pERK1/2 = test: Western blot pERK1_2 (Ras/Raf/MEK/ERK pathway inhibition); format: cell-based; conditions: 24 hours of treatment, untreated 0.38
Text: Western blot technique was used, using an Odissey Licor equipment to read the membranes. pERK1_2 antibody was used as first antibody and as second antibody we used anti-mouse antibodies. Then, the membranes were quantified using β-actin.

MiaPaca 2 cell line = test: ApoTox-Glo Triplex Assay (viability, citotoxicity, apoptosis); format: cell-based; conditions: Homo sapiens, MIA PaCa-2, MiaPaca_2, 72 hours of treatment
Protocol: The MiaPaca 2 cell line was used for further evaluation of the MDN-0089, MDN-0090, MDN-0092 and MDN-0093 activity. The ApoTox-Glo™ Triplex Assay was used to evaluate three parameters (viability, citotoxicity and apoptosis).
Viability: The live-cell protease activity is restricted to intact viable cells and is measured using a fluorogenic, cell-permeant, peptide substrate (glycylphenylalanyl-aminofluorocoumarin; GF-AFC). The substrate enters intact cells where it is cleaved by the live-cell protease activity to generate a fluorescent signal proportional to the number of living cells
Cytotoxicity: Fluorogenic cell-impermeant peptide substrate (bis-alanylalanyl-phenylalanyl-rhodamine 110; bis-AAF-R110) is used to measure dead-cell protease activity, which is released from cells that have lost membrane integrity. Because bis-AAF-R110 is not cell-permeant, essentially no signal from this substrate is generated by intact, viable cells
Apoptosis: The assay uses the Caspase-Glo® Assay Technology by providing a luminogenic caspase-3/7 substrate, which contains the tetrapeptide sequence DEVD, in a reagent optimized for caspase activity, luciferase activity and cell lysis.

MiaPaca_2 cell line = test: CFSE assay (cell cycle inhibition, High content screening); format: cell-based; conditions: Homo sapiens, MIA PaCa-2; MiaPaca_2, 72 hours of treatment; read-out: ED50 CFSE assay
Protocol: To evaluate the potency of the MDN-0089, MDN-0090, MDN-0092 and MDN-0093, dye CFSE and High content screening (HCS) equipment were used. MiaPaca_2 cell line was used. Cells were seeded in 96 wells plates at 10.000 cells/well. Medium was removed and compounds and standards were added in fresh medium at different concentrations, (1 μL of compound/200 μL fresh medium). The DMSO concentration was 0.5% in all wells. After 72 hours of incubation (37° C., 5% CO2), plates were read in HCS equipment.

HepG2 = test: Cytotoxicity on HepG2; format: cell-based; conditions: for activity effect on HepG2 (in words): 72 hours; for IC50: Homo sapiens, HepG2, 72 hours, read-out: IC50 Cytoxicity
BxPC3 = test: MTT assay in BxPC3 tumoral pancreatic cell line; format: cell-based; conditions: Homo sapiens, BXPC-3; 72 hours of treatment; read-out: ED50 BxPC3 (MTT assay)
Protocol: as §1

BxPC3 tumor cell line = test: In vivo tumorigenicity assay, BxPC3; conditions: BxPC3 cells treated with MDN-0090 at IC50 for 24 hours before inoculation into NSG mice
Protocol: (§2) To evaluate the effect of MDN-0090 on the tumorigenicity ability of CSC-like cells heterotopic xenografts using both BxPC3 and MIAPaca-2 tumor cell lines were established. Firstly, we treated cells with MDN-0090 at IC50 for 24 hours and after that cells were inoculated into the animals. Pancreatic cancer non-treated cells were used as control.
(§3) Tumor formation was induced by subcutaneous injection of 1.5×10^4 in vitro treated or non-treated cells/mouse in NOD scid mice gamma (NOD.Cg-Prkdcscid II2rgtm1Wjl/SzJ, NSG). Animals (n=20, 10 per group) were housed and maintained at 20° C. to 24° C., 50% humidity a light-dark cycle of 14 to 10 h with food and water ad libitum. We observed the tumor growth every two days. Tumor growth was assessed using a digital caliper and the tumor volume was calculated by the formula V=(length)^2×width×π/6.

CSCs BxPC3 = test: MTT test on pancreatic Cancer Stem Cells BxPC3; format: cell-based; conditions: Homo sapiens, BXPC-3, read-out: ED50 CSCs BxPC3
Text: (§4) Two established cell lines derived from two different pancreatic adenocarcinomas: BxPC3 (reference ATCC® CRL-1687), mutated for CDKN2A, MAP2K4, SMAD4 and TP53; and MIA-PaCa-2 (reference ATCC® CRL-1420), mutated for k-RAS were used. These cells lines were maintained with Dulbecco's-Modified Eagle's Medium (DMEM) (Sigma-Aldrich, St. Louis, Mo., USA) supplemented with 10% fetal bovine serum (FBS) (Gibco, Carlsbad, Calif., USA) and 1% penicillin/streptomycin (P/S) (Sigma-Aldrich) in a 75 cm^2 culture flask (B D Falcon, Franklin Lakes, N.J.) unless otherwise indicated. All cells were grown at 37° C. with 5% CO2 in a humidified incubator (Steri-Cult CO2 Incubator, Thermo Electron Corporation, Waltham, Mass., USA). Media were changed every 48-72 hours and cultured cells with a maximum of 80% confluence were passed.
(§5) For the isolation of CSCs subpopulation we used the methodology described in WO 2016/020572.
(§6) The activity of the MDN-0090 was detected using pancreatic Cancer Stem Cell lines (MiaPaca-2 and BxPC3). For this purpose MTT test was used.

p-ERK = test: AlphaScreen Surefire p-ERK kit assay; format: cell-based; conditions: 24 hours of treatment, read-out: Inflexion point (AlphaScreen)
Protocol: This effect was checked for MDN-0090 with a p-ERK kit (Perkin Elmer). Cells were seeded into 96 wells/plate at 75000 cells/well. 24 hours later the medium was removed and the compound was added with fresh medium. After 24 hours of treatment, cells were lysed. 15 μL of the lysate and 15 μL of reagents were added. After 2 hours of incubation, plate was read using an EnVision equipment to read AlphaScreen assay (AlphaScreen signal (Luminiscent/fluorescent). See table 11 and FIG. 2.

[2] = tested on: BxPC3 tumor cell line xenografts; test: Antitumor activity in heterotopic xenografts, BxPC3; format: in vivo; conditions: BxPC3 xenograft, NSG mice, 20 mg/kg ip three times a week for 50 days
Protocol: (§7) To evaluate the effect of MDN-0090 on tumor growth heterotopic xenografts were used for both BxPC3 and MIAPaca-2 tumor cell lines. Tumor formation was induced by subcutaneous injection of 5×10^6 cells/mouse in female NOD scid mice gamma (NOD.Cg-Prkdcscid II2rgtm1Wjl/SzJ, NSG) of eight weeks old. Animals (n=40, 10 per group) were housed and maintained at 20° C. to 24° C., 50% humidity a light-dark cycle of 14 to 10 h with food and water ad libitum. Tumors were grown to an average volume of 100 mm^3, after which they were randomly assigned as control groups (saline) and treated with MDN-0090 (20 mg/kg, dissolved in saline) injected ip three times a week for 50 days. Tumor growth was assessed twice weekly using a digital caliper and the tumor volume was calculated by the formula V=(length)^2×width×π/6.

CSCs MiaPaca_2 = test: MTT test on pancreatic Cancer Stem Cells MiaPaca_2; format: cell-based; conditions: Homo sapiens, MIA PaCa-2, read-out: ED50 CSCs MiaPaca_2
Text: as §4, §5, §6

[3] = tested on: MIAPaca-2 tumor cell line xenografts; test: Antitumor activity in heterotopic xenografts, MIAPaca-2; format: in vivo; conditions: MIAPaca-2 xenograft, NSG mice, 20 mg/kg ip three times a week for 50 days
Protocol: as §7

[4] = tested on: MIAPaca-2 tumor cell line; test: In vivo tumorigenicity assay, MIAPaca-2; conditions: MIAPaca-2 cells treated with MDN-0090 at IC50 for 24 hours before inoculation into NSG mice
Protocol: as §2, §3

BxPC3 CSCs xenografts = test: Antitumor activity against CSCs induced tumors; format: in vivo; conditions: BxPC3 CSCs xenograft, NSG mice, 10 mg/kg or 20 mg/kg ip three times a week for 52 days
Protocol: We evaluated the effect of MDN-0090 on CSCs induced tumors. We isolated and characterized the pancreatic CSCs from BxPC3 cell line using the methodology described previously (WO 2016/020572).
In vivo experiment was performed in male and female NOD scid gamma mice (NSG, NOD.Cg-Prkdcscid II2rgtm1Wjl/SzJ). All animals (n=10 per group) were maintained in a microventilated cage system with a 12-h light/dark cycle, and were manipulated in a laminar air-flow cabinet to keep on the specific pathogen-free conditions.
For the induction of xenografts tumors, mice were anesthetized by inhalation of isofluorane, inoculated with 5×10^4 BxPC3 CSCs by subcutaneously injections into the flank regions. Tumors were grown to an average volume of 100 mm^3, after which they were randomly assigned as control groups (saline) and treatment A with MDN-0090 (10 mg/kg, dissolved in saline) and treatment B (20 mg/kg, dissolved in saline) ip three times a week for 52 days. Tumor growth was assessed twice weekly using a digital caliper and the tumor volume was calculated by the formula V=(length)^2×width×π/6.

[5] = read-out: ED50 Apoptosis (Caspase3_7)

| EC50 (MiaPaca_2) [µM] | EC50 (MiaPaca_2 cell line) [µM] | EC50 (BxPC3) [µM] | SMILES | pERK1_2 (Fluorescence pERK1/2/fluorescence β-actine) (pERK1/2) | EC50 (MiaPaca 2 cell line; [5]) [µM] | EC50 (MiaPaca 2 cell line; read-out: ED50 Citotoxicity) [µM] | EC50 (MiaPaca 2 cell line; read-out: ED50 Viability) [µM] | activity effect on HepG2 (in words) (HepG2) | IC50 (HepG2) [µM] | other results |
| --- | --- | --- | --- | --- | --- | --- | --- | --- | --- | --- |
| – | – | – | Nc1ccn([C@@H]2O[C@H](CO)[C@@H](O)C2(F)F)c(=O)n1 [Gemcitabine] | – | – | – | – | – | – | IC50 [1]: 1.9 µM |
| 20.3 | 3.33 | 7.63 | Cc1cc(O)c(C(=O)c2c(C=O)c(O)cc3c2C(=O)CC(C)(C)O3)c(O)c1 [MDN-0089] | 0.22 | 29.7 | > 50 | > 50 | medium activity effect | 13.6 | – |
| 8.84 | 5.27 | 4.67 | CC(C)=CCc1c(O)cc(O)c(C=O)c1C(=O)c1c(O)cc(C)cc1O [MDN-0090, 2,3′,5′,6-tetrahydroxy-2′-formyl-6′-(3-methyl-2-butenyl)-4-methyl-benzophenone] | 0.18 | 24.9 | > 50 | 17.3 | medium activity effect | 19.7 | tumor formation (BxPC3 tumor cell line): reduces tumor formation; EC50 (CSCs BxPC3; 12 hours): 14.3 µM; EC50 (CSCs BxPC3; 24 hours): 17 µM; EC50 (CSCs BxPC3; 48 hours): 14 µM; EC50 (CSCs BxPC3; 72 hours): 10.3 µM; IC50 (p-ERK; 24 h): 9.02 µM; IC50 (p-ERK): 6.12 µM; tumor size (tumor volume) [2]: reduces the size of tumors; EC50 (CSCs MiaPaca_2; 12 hours): 20.8 µM; EC50 (CSCs MiaPaca_2; 24 hours): 14 µM; EC50 (CSCs MiaPaca_2; 48 hours): 19.6 µM; EC50 (CSCs MiaPaca_2; 72 hours): 2.18 µM; tumor size (tumor volume) [3]: reduces the size of tumors; tumor formation [4]: reduces tumor formation; tumor size (tumor volume) (BxPC3 CSCs xenografts): decreased the size tumor |
| > 50 | – | > 50 | Cc1cc(O)c(C(=O)c2c(C=O)c(O)cc3c2C=CC(C)(C)O3)c(O)c1 [MDN-0091] | – | – | – | – | – | – | – |
| 7.18 | 22.9 | 9.14 | COc1cc(O)c(C=O)c(C(=O)c2c(O)cc(C)cc2O)c1CC=C(C)C [MDN-0092] | 0.29 | > 50 | > 50 | > 50 | medium activity effect | 20.4 | – |
| 6.47 | < 3.15 | 8.7 | COc1cc(O)c(C=O)c(C(=O)c2c(O)cc(C)c(Cl)c2O)c1CC=C(C)C [MDN-0093] | 0.12 | 18.4 | > 50 | 14.5 | high activity effect | 8.9 | – |
| > 50 | – | > 50 | COc1cc(O)c2oc3cc(C)cc(O)c3c(=O)c2c1CC=C(C)C [MDN-0094] | – | – | – | – | – | – | – |
